What all share (type): biochemical
One assay addresses T1, NUAK2 (h) (Homo sapiens, UniProt Q9H093).
T1 construct: This assay was done radiometrically using full-length, recombinant enzyme; purchased Eurofins
T1 sequence (Q9H093 1-628): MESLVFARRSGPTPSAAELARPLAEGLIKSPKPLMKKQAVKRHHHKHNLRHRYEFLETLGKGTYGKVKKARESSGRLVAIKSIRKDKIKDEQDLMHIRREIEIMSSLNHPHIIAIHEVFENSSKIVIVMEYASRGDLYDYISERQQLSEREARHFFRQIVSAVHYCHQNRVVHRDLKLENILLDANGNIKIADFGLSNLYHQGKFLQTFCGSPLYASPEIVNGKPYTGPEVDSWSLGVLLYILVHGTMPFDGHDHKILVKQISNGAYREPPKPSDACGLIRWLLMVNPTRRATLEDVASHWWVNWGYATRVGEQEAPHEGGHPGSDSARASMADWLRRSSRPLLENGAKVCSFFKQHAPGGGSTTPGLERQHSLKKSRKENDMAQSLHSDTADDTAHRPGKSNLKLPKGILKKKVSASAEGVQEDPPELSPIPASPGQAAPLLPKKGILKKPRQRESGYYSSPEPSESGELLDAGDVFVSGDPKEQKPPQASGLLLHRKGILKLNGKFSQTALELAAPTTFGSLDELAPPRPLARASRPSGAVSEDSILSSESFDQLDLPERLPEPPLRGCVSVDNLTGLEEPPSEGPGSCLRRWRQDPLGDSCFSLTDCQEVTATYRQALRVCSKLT
In words: NUAK2 enzymatic assay (radiometric, Eurofins). The settings on record: for IC50: radiometric, full-length recombinant enzyme. In short, it runs like this: (§1)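 Radiometric assay with full-length recombinant NUAK2 in 8 mM MOPS pH 7.0, 0.2 mM EDTA, 10 mM magnesium acetate, 300 μM peptide substrate and [33P]-ATP, 40 min at room temperature. Phosphoric acid stop, filter capture, scintillation counting. Aurora A and NUAK1 used as counter screens.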

The next assay concerns the target T2, NUAK1 (Homo sapiens, UniProt O60285).
T2 sequence (O60285 1-661): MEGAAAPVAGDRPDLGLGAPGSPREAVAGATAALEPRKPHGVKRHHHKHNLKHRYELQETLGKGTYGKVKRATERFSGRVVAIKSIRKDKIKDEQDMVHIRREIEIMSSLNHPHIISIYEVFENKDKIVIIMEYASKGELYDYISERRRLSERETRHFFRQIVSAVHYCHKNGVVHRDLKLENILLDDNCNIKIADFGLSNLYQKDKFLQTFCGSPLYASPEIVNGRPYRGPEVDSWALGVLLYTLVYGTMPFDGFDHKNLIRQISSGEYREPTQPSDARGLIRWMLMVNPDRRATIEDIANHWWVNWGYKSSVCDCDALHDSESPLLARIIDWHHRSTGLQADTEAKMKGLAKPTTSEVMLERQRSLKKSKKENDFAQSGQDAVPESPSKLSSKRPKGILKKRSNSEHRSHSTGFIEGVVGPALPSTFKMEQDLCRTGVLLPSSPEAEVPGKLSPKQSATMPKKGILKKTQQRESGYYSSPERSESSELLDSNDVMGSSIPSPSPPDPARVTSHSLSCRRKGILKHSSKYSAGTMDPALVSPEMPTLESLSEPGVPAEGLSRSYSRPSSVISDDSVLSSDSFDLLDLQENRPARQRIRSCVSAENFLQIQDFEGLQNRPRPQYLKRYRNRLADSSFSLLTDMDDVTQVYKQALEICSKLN
In words: NUAK1 counter screen. In short, it runs like this: as §1
A general note: A counterscreen serves to expose hits that act by an unwanted route or on another target.

A further assay deals with T3, Aurora A (Homo sapiens, UniProt O14965).
T3 sequence (O14965 1-403): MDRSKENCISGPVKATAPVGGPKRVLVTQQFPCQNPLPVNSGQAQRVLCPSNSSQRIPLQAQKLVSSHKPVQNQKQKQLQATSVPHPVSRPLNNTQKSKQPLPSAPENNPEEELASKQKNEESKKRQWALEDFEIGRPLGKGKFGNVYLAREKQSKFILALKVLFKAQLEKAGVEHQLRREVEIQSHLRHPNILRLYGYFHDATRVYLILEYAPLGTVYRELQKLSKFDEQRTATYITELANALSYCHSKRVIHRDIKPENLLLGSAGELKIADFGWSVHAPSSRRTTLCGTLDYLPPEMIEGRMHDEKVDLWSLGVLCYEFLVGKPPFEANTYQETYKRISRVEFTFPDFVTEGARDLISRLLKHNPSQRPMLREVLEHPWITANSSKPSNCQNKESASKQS
Description: Aurora A counter screen. The settings on record: read-out: AUR-A (IC50). In short, it runs like this: as §1

Usually IC50 stands for the midpoint of a concentration-inhibition curve. Regarding `CN1CCN(c2ccc(Nc3ncc(Cl)c(Nc4ccsc4C(N)=O)n3)c(Cl)c2F)CC1` [Compound C-4, reference compound], at NUAK2 (h) (NUAK2 selectivity over Aurora-A, ratio of IC50s), the “AUR-A (IC50, nM)/NUAK2 (IC50, nM)” value stood at 50. In addition, the results for the IC50 at NUAK2 (h), at NUAK1 and on Aurora A were 0.1 to 10 nM, 0.1 to 10 nM and 101 to 1000 nM, respectively.
Turning to `CC(C)N1C[C@@H]2C[C@H]1CN2c1ccc(Nc2ncc(Cl)c(Nc3sccc3C(N)=O)n2)c(OC(F)F)c1` (stereo in doubt) [Compound I-36, 2-((5-chloro-2-((2-(difluoromethoxy)-4-((1S,4S)-5-isopropyl-2,5-diazabicyclo[2.2.1]heptan-2-yl)phenyl)amino)pyrimidin-4-yl)amino)thiophene-3-carboxamide], the IC50 on NUAK2 (h) lay within 11 to 100 nM; against NUAK1 it was 11 to 100 nM; on Aurora A, 101 to 1000 nM.
Turning to `CC(C)N1CCN(C2CCN(c3ccc(Nc4ncc(Cl)c(Nc5ccsc5C(N)=O)n4)c(OC(F)F)c3)CC2)CC1` [Compound I-62, 3-((5-chloro-2-((2-(difluoromethoxy)-4-(4-(4-isopropylpiperazin-1-yl)piperidin-1-yl)phenyl)amino)pyrimidin-4-yl)amino)thiophene-2-carboxamide], the IC50 was 11 to 100 nM on NUAK2 (h), 11 to 100 nM against NUAK1 and 101 to 1000 nM at Aurora A.
As for `NC(=O)c1sccc1Nc1nc(Nc2ccc(N3CCN(CC(F)(F)F)CC3)cc2OC(F)F)ncc1Cl` [Compound I-33, 3-((5-chloro-2-((2-(difluoromethoxy)-4-(4-(2,2,2-trifluoroethyl)piperazin-1-yl)phenyl)amino)pyrimidin-4-yl)amino)thiophene-2-carboxamide], the IC50 on NUAK2 (h), on NUAK1 and at Aurora A was 101 to 1000 nM each time.
Consider `CNC(=O)c1sccc1Nc1nc(Nc2ccc(N3CCN(C)CC3)cc2OC(F)F)ncc1Cl` [Compound I-7, 3-((5-chloro-2-((2-(difluoromethoxy)-4-(4-methylpiperazin-1-yl)phenyl)amino)pyrimidin-4-yl)amino)-N-methylthiophene-2-carboxamide], for which the IC50 on NUAK2 (h) fell in the range of 11 to 100 nM; at NUAK1, 11 to 100 nM; at Aurora A it was 101 to 1000 nM.
In the case of `COCCN1CCN(c2ccc(Nc3ncc(Cl)c(Nc4ccsc4C(N)=O)n3)c(OC(F)F)c2)CC1` [Compound I-50, 3-((5-chloro-2-((2-(difluoromethoxy)-4-(4-(2-methoxyethyl)piperazin-1-yl)phenyl)amino)pyrimidin-4-yl)amino)thiophene-2-carboxamide], the IC50 on NUAK2 (h), against NUAK1 and at Aurora A was 11 to 100 nM each time.
With `CC(C)(C)N1CCN(C2CCN(c3ccc(Nc4ncc(Cl)c(Nc5ccsc5C(N)=O)n4)c(OC(F)F)c3)CC2)CC1` [Compound I-63, 3-((2-((4-(4-(4-(tert-butyl)piperazin-1-yl)piperidin-1-yl)-2-(difluoromethoxy)phenyl)amino)-5-chloropyrimidin-4-yl)amino)thiophene-2-carboxamide], the IC50 on NUAK2 (h) fell in the range of 11 to 100 nM; against NUAK1, 0.1 to 10 nM; at Aurora A, 101 to 1000 nM.
The corresponding values for `C[C@H]1CN(c2ccc(Nc3ncc(Cl)c(Nc4ccsc4C(N)=O)n3)c(OC(F)F)c2)CCN1C` [Compound I-21, (S)-3-((5-chloro-2-((2-(difluoromethoxy)-4-(3,4-dimethylpiperazin-1-yl)phenyl)amino)pyrimidin-4-yl)amino)thiophene-2-carboxamide] are 0.1 to 10 nM, 0.1 to 10 nM and 11 to 100 nM.
For `CC(C)(C)N1CCN(c2ccc(Nc3ncc(Cl)c(Nc4sccc4C(N)=O)n3)c(OC(F)F)c2)CC1` [Compound I-22, 2-((2-((4-(4-(tert-butyl)piperazin-1-yl)-2-(difluoromethoxy)phenyl)amino)-5-chloropyrimidin-4-yl)amino)thiophene-3-carboxamide], the IC50 at NUAK2 (h), on NUAK1 and at Aurora A was 11 to 100 nM each time.

Values taken from US20240025887A1, “THIENYL AND CYCLOALKYL AMINOPYRIMIDINE COMPOUNDS AS INHIBITORS OF NUAK KINASES, COMPOSITIONS AND USES THEREOF” (Ontario Institute for Cancer Research (OICR), priority 2021, published 2024).
